Like-named read-outs stand apart in the source and are kept apart here. Non-standard residues stand in square brackets, D forms with d. Residues, ends and D or L forms follow the SMILES beside them. No end group written: not given here. Tle = CC(C)(C)[C@H](N)C(=O)O; Dab = NCC[C@H](N)C(=O)O; Aib = CC(C)(N)C(=O)O
What was measured:
[1] = pharmacokinetic study in rats, single intravenous bolus injection; format: in vivo, SD rats; details: for Cmax: read-out: Cmax
Description: With male SD rats as test animals, the pharmacokinetic behavior of polypeptide compounds administered via single intravenous bolus injection in rats (plasma) was studied.
Male SD rats weighing 170 to 200 grams and aged 4-6 weeks were purchased from Beijing Vital River Laboratory Animal Technology Co., Ltd. The polypeptide compounds were dissolved in 1× PBS, and the polypeptide compound solutions were then administered via intravenous bolus injection over 10 min at a dose of 3 nmol/g, with three animals per group. At each of the time points of 2 min, 8 min, 15 min, 30 min, 45 min, 60 min, and 120 min after the end of bolus injection, 0.2 mL of blood was collected and transferred to an EDTA-K2 anticoagulation centrifuge tube. The whole blood sample was centrifuged at 4 °C at 4000 g for 5 min, and a plasma sample was obtained by separation and cryopreserved at -80 °C.
The pharmacokinetic parameters of polypeptide compound 22, administered via intravenous bolus injection, in rats were determined using a similar method, with the difference being that an enzyme inhibitor was added immediately after blood collection.
The plasma concentrations of the test compounds were determined using the method in Test Example 3.4.3. Plasma concentration-time curves were plotted, and the pharmacokinetic parameters were calculated using PKSolver software. The experimental results are shown in Table 5-1, Table 5-2, and FIG. 3.

[2] = plasma stability test, human plasma; format: in vitro ADME; details: for Relative remaining compound content (%): 0min (standard 100%)
Description: (§1) Solution preparation: An appropriate amount of a test polypeptide compound was weighed out and dissolved in an appropriate amount of 1× PBS to form a 1 mM test solution. NA-1 and NoNO42 were used as positive drugs, propantheline bromide was used as a human plasma test control, and lovastatin was used as a rat plasma test control. Plasma stability test: 12.5 µL of the 1 mM test solution was added to a 495 µL pre-incubated plasma sample. […] For each incubation time, two parallel samples were set. Subsequently, 200 µL of stop solution was added to stop the incubation, and the mixtures were vortexed for 5 min. Then the mixtures were centrifuged at 10,000 rpm at 4 °C for 10 min to remove the protein in the sample, and 70 µL of the supernatant was transferred to a new 96-well plate (70 µL of water was added to each well beforehand) and well mixed. […] Sample pretreatment: […] LC-MS analysis: […] (2) Mass-spectrometric conditions: The mass spectrometry analysis used an electrospray ionization (ESI) source, a positive ion analysis mode, and a multi-reaction monitoring (MRM) scan mode. […] The plasma stability of the polypeptide compound

[3] = plasma stability test with alteplase added, human plasma; format: in vitro ADME; details: Human plasma + rt-PA (50 µg/mL alteplase), 25 µM
Description: as §1, with “mixed. Plasma stability test with alteplase added: An appropriate amount of solid alteplase was weighed out, and an appropriate volume of water was added. The mixture was vortexed to dissolve alteplase, forming a 1 mg/mL solution of alteplase. 250 µL of the 1 mg/mL solution of alteplase was added to 4750 µL of plasma to form a plasma sample containing 50 µg/mL alteplase. The other procedures were the same as in the aforementioned "plasma stability test", with the difference being that the plasma sample containing 50 µg/mL alteplase was used instead of plasma.” for “mixed.”

[4] = male, SD, rat, plasma, rats, intravenous bolus injection over 10 min, 3 nmol/g, n = 3
[5] = rats, intravenous bolus injection over 10 min, 3 nmol/g, n = 3
[6] = Human plasma, 25 µM, 10min, read-out: Relative remaining compound content (%)
[7] = Human plasma, 25 µM, 20min, read-out: Relative remaining compound content (%)
[8] = Human plasma, 25 µM, 30min, read-out: Relative remaining compound content (%)
[9] = Human plasma, 25 µM, 60min, read-out: Relative remaining compound content (%)
[10] = Human plasma, 25 µM, 120min, read-out: Relative remaining compound content (%)
[11] = male, SD, rat, in vivo, 3 nmol/g, rats, intravenous bolus injection, enzyme inhibitor added immediately after blood collection, n = 3
[12] = male, SD, rat, plasma, 3 nmol/g, rats, intravenous bolus injection, enzyme inhibitor added immediately after blood collection, n = 3
[13] = rats, intravenous bolus injection, enzyme inhibitor added (Table 5-2)
[14] = rats, intravenous bolus injection, enzyme inhibitor added immediately after blood collection, n = 3

Compound	Relative remaining compound content (%) ([3]; 0min (standard 100%))	Relative remaining compound content (%) ([3]; 10min)	Relative remaining compound content (%) ([3]; 20min)	Relative remaining compound content (%) ([3]; 30min)	Relative remaining compound content (%) ([3]; 60min)	Relative remaining compound content (%) ([3]; 120min)	AUClast/dose [1, 5]	Relative remaining compound content (%) ([2]; Human plasma, 25 µM)	remaining at 10 min, 25 µM [2, 6] [%]	remaining at 20 min, 25 µM [2, 7] [%]	remaining at 0.5 h, 25 µM [2, 8] [%]	remaining at 1 h, 25 µM [2, 9] [%]	remaining at 2 h, 25 µM [2, 10] [%]	AUClast/dose [1, 14]	further results
CC[C@H](C)[C@H](NC(=O)[C@H](CO)NC(=O)[C@H](CO)NC(=O)[C@H](CC(C)C)NC(=O)[C@@H](CCCCN)NC(=O)[C@H](CCCNC(=N)N)NC(=O)[C@H](CCCNC(=N)N)NC(=O)[C@@H](CCCNC(=N)N)NC(=O)[C@H](CCC(N)=O)NC(=O)[C@@H](CCCNC(=N)N)NC(=O)[C@H](CCCNC(=N)N)NC(=O)[C@H](CCCCN)NC(=O)[C@H](CCCCN)NC(=O)[C@@H](CCCNC(=N)N)NC(=O)CNC(=O)[C@@H](N)Cc1ccc(O)cc1)C(=O)N[C@@H](CCC(=O)O)C(=O)N[C@@H](CO)C(=O)N[C@@H](CC(=O)O)C(=O)N[C@H](C(=O)O)C(C)C [NoNO42, YGrKKRrQrRRkLSSIESDV, reference compound] (H-YG[dR]KKR[dR]Q[dR]RR[dK]LSSIESDV-OH)															half-life ([1]; male, SD, rat, in vivo, iv): 2.4 min; AUClast/dose ([1]; rat, in vivo, iv): 25; half-lives ([1]; rat, in vivo, iv): less than 3 min; remaining at 10 min, 25 µM ([2]; human, plasma): 104%; remaining at 20 min, 25 µM ([2]; human, plasma): 104%; remaining at 0.5 h, 25 µM ([2]; human, plasma): 107%; remaining at 1 h, 25 µM ([2]; human, plasma): 99.3%; remaining at 2 h, 25 µM ([2]; human, plasma): 107%
CC(C)[C@H](NC(=O)[C@H](CC(=O)O)NC(=O)[C@@H](NC(=O)[C@@H](NC(=O)[C@@H](NC(=O)[C@@H](NC(=O)[C@H](CCN)NC(=O)C(C)(C)NC(=O)CNC(=O)[C@@H](CCCNC(=N)N)NC(=O)[C@@H](CCCNC(=N)N)NC(=O)[C@@H](CCCNC(=N)N)NC(=O)[C@@H](CCC(N)=O)NC(=O)[C@@H](CCCNC(=N)N)NC(=O)[C@@H](CCCNC(=N)N)NC(=O)[C@@H](CCCCN)NC(=O)[C@@H](CCCCN)NC(=O)[C@@H](CCCNC(=N)N)NC(=O)CNC(=O)[C@H](N)Cc1ccc(O)cc1)[C@@H](C)O)C(C)(C)C)C(C)(C)C)[C@@H](C)O)C(=O)O [Polypeptide compound 14, y-G-r-k-k-r-r-q-r-r-r-G-Aib-Dab-T-Tle-Tle-T-D-V] (H-[dY]G[dR][dK][dK][dR][dR][dQ][dR][dR][dR]G[Aib][Dab]T[Tle][Tle]TDV-OH)	100.0	98.6	89.8	85.8	91.2	92.3	1041	100.0	102	101	97.3	103	105		AUC(0-inf) [1, 4]: 9900 ng·h/mL; MRT [1, 4]: 71.4 min; AUC(0-t) ([1]; male, SD, rat, plasma, rats, intravenous bolus injection over 10 min, 3 nmol/g, n = 3, read-out: AUC(0-t)): 7910 ng·h/mL; Cmax [1, 4]: 15100 ng/mL; half-life ([1]; male, SD, rat, plasma, rats, intravenous bolus injection over 10 min, 3 nmol/g, n = 3, read-out: T1/2 (converted)): 56.4 min
CC(C)[C@H](NC(=O)[C@H](CC(=O)O)NC(=O)[C@@H](NC(=O)[C@@H](NC(=O)[C@@H](NC(=O)[C@@H](NC(=O)[C@H](CCN)NC(=O)C(C)(C)NC(=O)CNC(=O)[C@@H](CCCNC(=N)N)NC(=O)[C@H](CCCNC(=N)N)NC(=O)[C@H](CCCNC(=N)N)NC(=O)[C@H](CCC(N)=O)NC(=O)[C@@H](CCCNC(=N)N)NC(=O)[C@H](CCCNC(=N)N)NC(=O)[C@H](CCCCN)NC(=O)[C@H](CCCCN)NC(=O)[C@H](N)CCCNC(=N)N)[C@@H](C)O)C(C)(C)C)C(C)(C)C)[C@@H](C)O)C(=O)O [Polypeptide compound 22, r-K-K-R-r-Q-R-R-r-G-Aib-Dab-T-Tle-Tle-T-D-V] (H-[dR]KKR[dR]QRR[dR]G[Aib][Dab]T[Tle][Tle]TDV-OH)	100.0	97.9	95.8	102.8	91.3	95.6		100.0	99.5	97	104	98	90.1	2239.6	AUC(0-inf) [1, 11]: 24300 ng·h/mL; MRT [1, 12]: 106 min; Tmax [1, 12]: 21.6 min; Cmax [1, 12]: 16900 ng/mL; half-life ([1]; male, SD, rat, plasma, 3 nmol/g, rats, intravenous bolus injection, enzyme inhibitor added immediately after blood collection, n = 3, read-out: T1/2 (converted)): 69.6 min; area under the curve (AUC) increase compared to NA-1 [1, 13]: 19.4 fold; half-life increase compared to NA-1 [1, 13]: 29 fold; maximum plasma concentration (Cmax) increase compared to NA-1 [1, 13]: 2.3 fold
YGRKKRRQRRRKLSSIESDV [NA-1, YGRKKRRQR RRKLSSIESDV, reference compound]	100.0	23.9	7.6	3.4	0.9	0.3	41	100.0	76.4	74.9	70.6	53.9	25.1	184.0	Tmax [1, 11]: 12 min; Cmax ([1]; male, SD, rat, in vivo, iv, 3 nmol/g, rats, intravenous bolus injection over 10 min, 3 nmol/g, n = 3): 3800 ng/mL; Cmax ([1]; male, SD, rat, in vivo, iv, 3 nmol/g, rats, intravenous bolus injection, enzyme inhibitor added immediately after blood collection, n = 3): 7250 ng/mL; half-life ([1]; male, SD, rat, in vivo, rats, intravenous bolus injection over 10 min, 3 nmol/g, n = 3, read-out: T1/2 (converted)): 2.4 min; AUC(0-t) [1, 5]: 309 ng·h/mL; AUC(inf) [1, 5]: 315 ng·h/mL; MRTO-inf [1, 5]: 3.6 min; half-lives ([1]; rats, intravenous bolus injection, 3 nmol/g (Table 5-1)): less than 3 min; AUC(inf) [1, 14]: 1248 ng·h/mL; MRTO-inf [1, 14]: 13.2 min; T1/2 [1, 14]: 2.4 min

— patent EP4650362A1, “NEUROPROTECTIVE PSD-95 POLYPEPTIDE INHIBITOR AND USE THEREOF” (Beijing Tuo Jie Biopharmaceutical Co. Ltd., priority 2023, dated 2024)
